# Experimental data: PMC9927415, “Tyrosine Kinase Inhibitors Display Potent Activity against Cryptosporidium parvum” (Microbiology Spectrum, 2022)
# Columns and labels:
# PAK3 = target: T1, PAK3 (Homo sapiens, UniProt O75914); assay: KINOMEscan competitive binding; settings: n=1, read-out: Percent inhibition, PAK3
# T1 construct: purchased DiscoverX (KINOMEscan)
# Cryptosporidium parvum = assay: In vitro C. parvum growth inhibition assay (Nluc reporter strain in HCT-8 cells); assay type: cell-based; settings: 48 h; for EC50: mean of two independent experiments, dose response 10 nM to 10 μM, read-out: Cp EC50; for inhibition at 10 µM: primary screen, 10 μM compound, three technical replicates, read-out: Mean percent inhibition of C. parvum growth
# Protocol: Host intestinal epithelial adenocarcinoma (HCT-8) cells were seeded into 96-well plates and grown to 70% confluence in RPMI medium supplemented with L-glutamine, 10% fetal bovine serum (FBS), 0.1 U/mL penicillin, 0.1 μg/mL streptomycin, 0.25 μg/mL amphotericin B and 1 mM sodium pyruvate. The host cell medium was aspirated and replaced with Cryptosporidium infection media (RPMI containing 2% FBS, 0.1 U/mL penicillin, 0.1 μg/mL streptomycin and 0.25 μg/mL amphotericin B) media prior to infection. The HCT-8 cells were infected with bleached and washed Nluc expressing C. parvum oocysts (2,000 oocysts per well) to which 10 μM compounds were added and plates were incubated for 48 h at 37°C, 5% CO2 and luminescence was measured using the protocol described previously ([14], [58]). […] Negative (no drug) and positive control (10 μM nitazoxanide) wells (three replicates each) were also set-up in the same plate. After the incubation, medium was removed and 100 μL of NanoGlo lysis buffer (Promega) was added to the wells followed by incubation for 15 min at 37°C, 5% CO2. The lysate was suspended by pipetting and 100 μL of NanoGlo lysis buffer containing 1:50 of NanoGlo substrate (Promega) was added to each well. […] For the dose response assay, compounds were tested in triplicate wells in two independent experiments and percent luminescence of no drug was calculated.
# EC50 values were calculated using a nonlinear regression (curve fit of log-dose versus response) in GraphPad Prism version 8.
# TNK1 = target: T2, TNK1 (Homo sapiens, UniProt Q13470); assay: KINOMEscan competitive binding; settings: n=1, read-out: Percent inhibition, TNK1
# T2 construct: purchased DiscoverX (KINOMEscan)
# T2 sequence (Q13470 1-666): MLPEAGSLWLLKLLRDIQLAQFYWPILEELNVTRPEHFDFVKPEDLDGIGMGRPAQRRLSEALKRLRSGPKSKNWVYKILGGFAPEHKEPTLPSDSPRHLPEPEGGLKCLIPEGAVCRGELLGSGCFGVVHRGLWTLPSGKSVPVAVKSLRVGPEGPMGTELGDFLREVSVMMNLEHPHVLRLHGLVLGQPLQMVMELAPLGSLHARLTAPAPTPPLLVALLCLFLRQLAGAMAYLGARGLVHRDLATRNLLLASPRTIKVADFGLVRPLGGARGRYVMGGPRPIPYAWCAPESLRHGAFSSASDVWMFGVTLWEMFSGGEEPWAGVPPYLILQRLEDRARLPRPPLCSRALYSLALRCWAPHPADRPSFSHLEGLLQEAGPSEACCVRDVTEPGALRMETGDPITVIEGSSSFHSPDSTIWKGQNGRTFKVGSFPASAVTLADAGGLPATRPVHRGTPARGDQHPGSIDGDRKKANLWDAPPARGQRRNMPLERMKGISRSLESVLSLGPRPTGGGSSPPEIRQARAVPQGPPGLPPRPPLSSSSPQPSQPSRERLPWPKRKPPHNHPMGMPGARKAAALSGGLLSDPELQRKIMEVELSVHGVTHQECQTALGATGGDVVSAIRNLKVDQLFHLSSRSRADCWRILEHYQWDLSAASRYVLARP
# TESK1 = target: T3, TESK1 (Homo sapiens, UniProt Q15569); assay: KINOMEscan competitive binding; settings: n=1, read-out: Percent inhibition, TESK1
# T3 construct: purchased DiscoverX (KINOMEscan)
# T3 sequence (Q15569 whole entry): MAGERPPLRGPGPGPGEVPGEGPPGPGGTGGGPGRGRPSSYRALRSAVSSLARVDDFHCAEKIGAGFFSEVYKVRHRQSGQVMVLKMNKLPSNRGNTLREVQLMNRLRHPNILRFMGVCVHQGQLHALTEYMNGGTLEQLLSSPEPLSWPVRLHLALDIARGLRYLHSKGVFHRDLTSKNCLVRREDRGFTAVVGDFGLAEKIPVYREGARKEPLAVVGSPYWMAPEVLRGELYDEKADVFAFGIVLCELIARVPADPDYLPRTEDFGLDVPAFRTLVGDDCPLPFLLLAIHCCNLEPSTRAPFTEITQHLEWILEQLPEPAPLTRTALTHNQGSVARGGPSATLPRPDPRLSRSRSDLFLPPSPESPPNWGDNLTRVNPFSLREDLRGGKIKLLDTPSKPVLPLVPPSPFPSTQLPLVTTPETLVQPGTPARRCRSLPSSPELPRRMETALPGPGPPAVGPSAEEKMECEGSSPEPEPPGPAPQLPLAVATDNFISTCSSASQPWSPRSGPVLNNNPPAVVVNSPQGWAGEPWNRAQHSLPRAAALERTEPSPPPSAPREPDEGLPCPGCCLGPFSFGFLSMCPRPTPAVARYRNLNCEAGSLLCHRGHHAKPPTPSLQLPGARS
# YES = target: T4, YES (Homo sapiens, UniProt P07947); assay: KINOMEscan competitive binding; settings: n=1, read-out: Percent inhibition, YES
# T4 construct: purchased DiscoverX (KINOMEscan)
# T4 sequence (P07947 whole entry): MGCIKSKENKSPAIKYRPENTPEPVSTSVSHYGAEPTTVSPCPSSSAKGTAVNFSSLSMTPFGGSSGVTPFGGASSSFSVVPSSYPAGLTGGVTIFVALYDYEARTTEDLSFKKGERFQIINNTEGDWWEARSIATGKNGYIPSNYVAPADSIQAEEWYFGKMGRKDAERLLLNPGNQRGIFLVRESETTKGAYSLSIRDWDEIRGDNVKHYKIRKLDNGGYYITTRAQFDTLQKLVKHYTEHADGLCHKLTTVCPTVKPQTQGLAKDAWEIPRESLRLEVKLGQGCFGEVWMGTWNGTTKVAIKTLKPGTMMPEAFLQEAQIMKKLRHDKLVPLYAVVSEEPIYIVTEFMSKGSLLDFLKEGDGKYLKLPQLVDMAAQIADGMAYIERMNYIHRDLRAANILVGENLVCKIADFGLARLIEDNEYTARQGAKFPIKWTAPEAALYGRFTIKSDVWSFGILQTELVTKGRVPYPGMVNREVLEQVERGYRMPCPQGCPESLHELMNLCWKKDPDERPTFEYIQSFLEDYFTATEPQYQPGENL
# STK36 = target: T5, STK36 (Homo sapiens, UniProt Q9NRP7); assay: KINOMEscan competitive binding; settings: n=1, read-out: Percent inhibition, STK36
# T5 construct: purchased DiscoverX (KINOMEscan)
# T5 sequence (Q9NRP7 1-1315): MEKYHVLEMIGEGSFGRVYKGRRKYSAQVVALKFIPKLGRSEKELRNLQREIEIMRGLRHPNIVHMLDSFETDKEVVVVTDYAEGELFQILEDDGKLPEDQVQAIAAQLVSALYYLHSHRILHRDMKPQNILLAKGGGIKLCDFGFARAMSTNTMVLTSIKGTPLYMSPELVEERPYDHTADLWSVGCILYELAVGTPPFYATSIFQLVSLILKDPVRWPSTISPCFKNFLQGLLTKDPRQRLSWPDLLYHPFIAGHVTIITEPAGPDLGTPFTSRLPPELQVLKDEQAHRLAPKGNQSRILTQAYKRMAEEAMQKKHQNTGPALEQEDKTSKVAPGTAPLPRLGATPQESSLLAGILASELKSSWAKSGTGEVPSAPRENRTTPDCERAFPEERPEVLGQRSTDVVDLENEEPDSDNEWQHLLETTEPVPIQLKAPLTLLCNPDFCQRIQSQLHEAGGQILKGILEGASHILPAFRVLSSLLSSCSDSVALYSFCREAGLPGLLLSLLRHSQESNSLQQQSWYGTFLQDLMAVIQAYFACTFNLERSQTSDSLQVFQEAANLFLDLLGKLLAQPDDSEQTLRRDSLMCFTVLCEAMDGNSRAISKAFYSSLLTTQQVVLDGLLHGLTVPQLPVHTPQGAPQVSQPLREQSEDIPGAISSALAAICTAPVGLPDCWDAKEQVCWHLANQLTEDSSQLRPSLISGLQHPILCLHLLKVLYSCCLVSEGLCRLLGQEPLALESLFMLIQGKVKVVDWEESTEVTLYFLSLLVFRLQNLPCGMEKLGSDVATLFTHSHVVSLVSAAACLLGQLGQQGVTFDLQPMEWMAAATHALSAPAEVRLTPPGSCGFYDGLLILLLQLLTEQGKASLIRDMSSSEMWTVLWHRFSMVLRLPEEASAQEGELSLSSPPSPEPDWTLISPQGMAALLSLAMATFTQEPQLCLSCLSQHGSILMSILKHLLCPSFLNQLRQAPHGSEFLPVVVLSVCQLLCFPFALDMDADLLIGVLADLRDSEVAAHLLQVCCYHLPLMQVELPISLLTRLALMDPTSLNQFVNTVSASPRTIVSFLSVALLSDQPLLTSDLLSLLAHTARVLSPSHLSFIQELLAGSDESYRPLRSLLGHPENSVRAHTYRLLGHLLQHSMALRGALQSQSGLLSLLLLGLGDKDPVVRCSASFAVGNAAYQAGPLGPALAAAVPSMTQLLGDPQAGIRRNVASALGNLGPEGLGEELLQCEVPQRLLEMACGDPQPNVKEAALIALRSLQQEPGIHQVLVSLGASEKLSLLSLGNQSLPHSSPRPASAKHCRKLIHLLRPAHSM
# YSK1 = target: T6, YSK1 (Homo sapiens, UniProt O00506); assay: KINOMEscan competitive binding; settings: n=1, read-out: Percent inhibition, YSK1
# T6 construct: purchased DiscoverX (KINOMEscan)
# T6 sequence (O00506 whole entry): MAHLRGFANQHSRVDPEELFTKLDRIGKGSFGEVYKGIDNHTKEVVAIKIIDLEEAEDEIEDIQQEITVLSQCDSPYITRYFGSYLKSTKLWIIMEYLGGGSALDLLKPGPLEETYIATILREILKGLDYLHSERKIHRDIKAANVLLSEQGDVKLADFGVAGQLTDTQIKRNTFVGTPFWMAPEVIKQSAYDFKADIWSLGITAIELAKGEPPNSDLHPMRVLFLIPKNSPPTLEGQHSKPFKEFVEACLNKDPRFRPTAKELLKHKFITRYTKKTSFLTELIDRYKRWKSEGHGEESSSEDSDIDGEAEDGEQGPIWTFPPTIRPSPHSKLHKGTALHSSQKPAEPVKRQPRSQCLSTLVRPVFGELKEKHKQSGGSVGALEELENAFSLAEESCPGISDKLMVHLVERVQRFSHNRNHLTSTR
# T1 sequence (O75914 whole entry): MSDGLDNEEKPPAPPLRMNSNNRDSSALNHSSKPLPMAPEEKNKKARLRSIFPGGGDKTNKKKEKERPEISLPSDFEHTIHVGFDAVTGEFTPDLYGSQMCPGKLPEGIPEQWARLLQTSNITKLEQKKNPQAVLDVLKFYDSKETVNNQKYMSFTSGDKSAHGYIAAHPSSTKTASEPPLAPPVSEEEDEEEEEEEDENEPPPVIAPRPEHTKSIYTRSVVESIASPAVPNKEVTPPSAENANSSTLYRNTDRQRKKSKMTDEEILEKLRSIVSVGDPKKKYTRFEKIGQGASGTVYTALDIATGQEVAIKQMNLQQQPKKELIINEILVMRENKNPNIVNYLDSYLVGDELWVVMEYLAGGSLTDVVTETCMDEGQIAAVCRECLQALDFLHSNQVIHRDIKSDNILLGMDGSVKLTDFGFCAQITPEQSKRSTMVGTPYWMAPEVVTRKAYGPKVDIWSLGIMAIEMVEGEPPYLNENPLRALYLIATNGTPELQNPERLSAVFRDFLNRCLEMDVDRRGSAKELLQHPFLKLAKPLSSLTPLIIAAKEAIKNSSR
SMILES,inhibition at 10 µM (PAK3) [%],EC50 (Cryptosporidium parvum) [nM],inhibition at 10 µM (Cryptosporidium parvum) [%],inhibition at 10 µM (TNK1) [%],inhibition at 10 µM (TESK1) [%],inhibition at 10 µM (YES) [%],inhibition at 10 µM (STK36) [%],inhibition at 10 µM (YSK1) [%]
CN1CCN(c2ccc(Nc3nccc(-c4cnn5ncccc45)n3)cc2C#N)CC1 [Compound 1],85.3,40,95.6,87.1,0,92.8,100,90.8
COc1ccc(Nc2nccc(-c3cnn4ncccc34)n2)cc1 [Compound 2],0,130,92.9,90.2,0,0,98.8,0
Cc1ccc(O)cc1Nc1ccnc(Nc2cccc(C(N)=O)c2)n1 [Compound 3],0,610,94.4,80.1,0,100,98.4,0
Cc1ccc(O)cc1N(C)c1ccnc(Nc2cccc(S(N)(=O)=O)c2)n1 [Compound 4],0,80,95.5,87.7,79.9,100,99.3,0
Fc1cccc(COc2ccc(Nc3ncnc4c3CN(CCN3CCOCC3)CC4)cc2Cl)c1 [Compound 6],0,240,93.7,0,0,0,0,0
COc1cc(Nc2nccc(-c3sc(N)nc3-c3cccc(NC(=O)c4c(F)cccc4F)c3)n2)cc(OC)c1OC [Compound 7],94.9,180,90.9,100,100,100,100,96.3
C[C@@H](Oc1cc(-c2cnc3ccccn23)sc1C(N)=O)c1ccccc1Cl [Compound 8],0,390,95,0,0,0,0,0
c1ccc(COc2cccc(-c3ccnc4[nH]ccc34)c2)cc1 [Compound 9],0,310,95.2,0,0,0,0,0
Clc1ccc(Nc2ncc(-c3ccccc3)s2)cc1 [Compound 10],0,420,95.1,0,0,0,0,0
Nc1ncc2c(-c3ccncc3)c[nH]c2n1 [Compound 11],0,60,90.8,0,0,66.2,0,0
